Values after ≈ are worked out from the molar mass of the structure shown. Where two headings read alike, the source gives them in different places.
Key:
[1] = tested on: duck hepatitis B virus (DHBV); experiment: DHBV DNA replication in primary duck hepatocytes (dot blot hybridization); assay type: cell-based; details: for inhibition at 10 µg/mL: read-out: % Inh. of DHBV DNA in duck hepatocytes @ 10 μg/ml
Description: A series of compounds were synthesized and assayed for activity against duck hepatitis B virus (DHBV). […] Test compounds were added to the hepatocyte cultures on day 2 and maintained in culture with media changed every second day until day 12. Cell were harvested at day 14 and lysed with buffer containing 1% SDS. DNA was isolated from the lysate and dot blot hybridization was performed using a DHBV (32P) DNA probe. […]
(§1) The compounds were assayed for a) their ability to inhibit DHBV DNA replication in duck hepatocytes, b) their ability to inhibit HBV DNA replication in HepG2 2.2.15 cells, c) the cell cytotoxicity in Vero cells, the cell viability in HFF cells, d) the cell proliferation in HFF cells, and e) the T cell proliferation (purified T cells, PHA stimulated). 3-TC was used as a control.

[2] = Cell cytotoxicity in Vero cells; assay type: cell-based; details: African green monkey, Vero cells
Description: as §1

HSV-2 (MS) = experiment: CPE inhibition assay HSV-2 (MS) in HFF cells; assay type: cell-based, Herpes simplex virus type-2; details: for EC50: Human alphaherpesvirus 2, HFF
Description: (§2) Cytopathic effect (CPE) inhibition assays for HSV-1, HSV-2, HCMV and VZV were performed as follows: Low passage human foreskin fibroblasts (HFF) cells were seeded into 96 well tissue culture plates 24 h prior to use at a cell concentration of 2.5×10^4 cells per mL in 0.1 mL of minimal essential medium (MEM) supplemented with 10% fetal bovine serum (FBS). The cells were then incubated for 24 h at 37° C. in a CO2 incubator. After incubation, the medium was removed and 100 μL of MEM containing 2% FBS was added to all but the first row. In the first row, 125 μL of experimental drug was added in triplicate wells. Medium alone was added to both cell and virus control […]. After incubation, the medium was removed and 100 μl of MEM containing 2% FBS was added to all but the first row. Medium alone was added to both cell and virus control wells. 125 μl of Experimental drug was added in triplicate wells. The drug in the first row of wells was then diluted serially 1:5 throughout the remaining wells by transferring 25 μL using the Cetus Liquid Handling Machine. After dilution of drugs, 100 μL of the appropriate virus concentration was added to each well, excluding the cell control wells which received 100 μL of MEM. For HSY-1 and HSV-2 assays, the virus concentration utilized was 1000 PFU's per well. For CMV and VZV assays, the virus concentration added was 2500 PFU's per well. The plates were then incubated at 37° C. in a CO2 incubator for 3 days for HSV-1 and HSV-2, 10 days for VZV, or 14 days for CMV. After the incubation period, media was aspirated and the cells stained with a 0.1% crystal violet solution for 30 min. The stain was then removed and the plates were allowed to dry 24 h and then read on a Skatron Plate Reader at 620 nm.

VZV (Ellen) = experiment: CPE inhibition assay VZV (Ellen) in HFF cells; assay type: cell-based, varicella zoster virus; details: for EC50: Human alphaherpesvirus 3, HFF
Description: as §2

HSV-1 (E-377) = experiment: CPE inhibition assay HSV-1 (E-377) in HFF cells; assay type: cell-based, Herpes simplex virus type-1; details: for EC50: Human alphaherpesvirus 1, HFF
Description: as §2

HSV-1 (KOS) HSV-TK+ = HSV-1 (KOS) HSV-TK+ antiviral assay; assay type: cell-based, Herpes simplex virus type-1; details: Table 4
Description: as §2

HCMV (AD169) = experiment: CPE inhibition assay HCMV (AD169) in HFF cells; assay type: cell-based, human cytomegalovirus; details: for EC50: Human betaherpesvirus 5, AD169, HFF
Description: as §2

Epstein-Barr Virus (EBV) = experiment: EBV immunofluorescence assay in DAUDI cells (P3HR-1 strain); assay type: cell-based; details: for EBV EC50: Table 4; for EC90: human gammaherpesvirus 4
Description: The immunofluorescence assay, using monoclonal antibodies, for Epstein-Barr Virus (EBV) was performed as follows: DAUDI cells were infected with the P3HR-1 strain of EBV and the test drug was added after adsorption (45 min. at 37° C.) and washing of the cell cultures. These cultures were then incubated for 2 days in complete medium to allow viral gene expression. Following the 48 h incubation period, the number of cells in each sample were counted and smears were made. Monoclonal antibodies to the different early antigen (EA) components and VCA were than added to the cells, incubated and washed. This was followed by the addition of a fluorescein conjugated rabbit anti mouse Ig antibodies. The number of fluorescence positive cells in the smears were counted and the total number of cells in the cultures positive for EA or VCA were then calculated and compared.

HSV-1 (KOSSB) HSV-TK− = experiment: microbe, parasite or virus in culture; assay type: cell-based, Herpes simplex virus type-1; details: for HSV-1 (KOSSB) HSV-TK− EC50: Table 4
Description: as §2, with “The” for “Cytopathic effect (CPE) inhibition assays for HSV-1, HSV-2, HCMV and VZV were performed as follows: Low passage human foreskin fibroblasts (HFF) cells were seeded into 96 well tissue culture plates 24 h prior to use at a cell concentration of 2.5×10^4 cells per mL in 0.1 mL of minimal essential medium (MEM) supplemented with 10% fetal bovine serum (FBS). The”

human HBV = experiment: HBV DNA replication in HepG2 2.2.15 cells; assay type: cell-based, hepatitis B virus; details: for EC50: Table 3a, read-out: % Inhibition of human HBV DNA replication in HepG2 2.2.15 cells EC50
Description: as §1, with “control. Additional compounds described below in the Preparative Examples section were also tested, and the results are shown in Tables 2-4 below. The reference numbers for the compounds are found in the Preparative Examples.” for “control.”

[3] = Duck hepatitis B virus, Hepatocyte
[4] = Duck hepatitis B virus, Hepatocyte, Table 2, value in brackets, read-out: DHBV DNA in duck hepatocytes [EC50, μg/ml]

Compound: C=Cc1cn(COC(CO)CO)c(=O)[nH]c1=O [Compound 9a, 1-[(2-Hydroxy-1-(hydroxymethyl)ethoxy)methyl]-5-vinyluracil]
- inhibition at 10 µg/mL [1, 3]: 82%
- EC50 [1, 4]: 0.3 to 1 µg/mL
- CC50 ([2]; Table 2): > 100 µg/mL

Compound: [N-]=[N+]=NC1C(Cl)C(=O)NC(=O)N1[C@H]1C[C@H](O)[C@@H](CO)O1 (stereo partly shown) [RB-10, 5-Chloro-6-azido-5,6-dihydro-2′-deoxyuridine]
- EC50 (HSV-2 (MS); Table 3b): 1.6 µM
- EC50 (VZV (Ellen); Table 3b): 9.8 µM
- CC50 ([2]; Table 3b): > 327 µM
- EC50 (HSV-1 (E-377); Table 3b): 330 nM

Compound: (5S,6R) 5-fluoro-O^6-5′-cyclo-5,6-dihydro-2′-deoxythymidine [Compound R-23]
- HSV-1 (KOS) HSV-TK+ EC50 (HSV-1 (KOS) HSV-TK+): >25 µg/mL
- HCMV (AD-169) EC50 (HCMV (AD169); Table 4): >100 µg/mL
- EBV EC50 (Epstein-Barr Virus (EBV)): 0.1 to 1.4 µg/mL
- EBV EC90 (Epstein-Barr Virus (EBV); Table 4, in parentheses): (EC90 = 7.3) μg/ml
- HSV-2 (MS) EC50 (HSV-2 (MS); Table 4): >100 µg/mL
- HSV-1 (KOSSB) HSV-TK− EC50 (HSV-1 (KOSSB) HSV-TK−): >50 µg/mL
- VZV (Ellen) EC50 (VZV (Ellen); Table 4): >100 µg/mL
- HSV-1 (E-377) EC50, μg/ml (HSV-1 (E-377); Table 4): >100 μg/ml

Compound: [(−)-(6S)]-5-bromo-6-ethoxy-5,6-dihydro-3′-fluoro-2′,3′-dideoxyuridine [RB-4]
- EC50 ([1]; Table 3a, read-out: % Inhibition of DHBV DNA in duck hepatocytes EC50): > 10 µM
- EC50 (human HBV): 3 µM

Compound: O=c1[nH]c(=O)n(CCC(CO)CO)cc1I [Compound 19, 1-[4-Hydroxy-3-(hydroxymethyl)-1-butyl]-5-iodouracil]
- inhibition at 10 µg/mL [1, 3]: 65.2%
- CC50 ([2]; Table 2): > 200 µg/mL
- inhibition at 0.01 µg/mL (human HBV; Hepatitis B virus, HepG2 2.2.15, read-out: % Inh. of human HBV DNA replication in HepG2 2.2.15 cells @ 0.01 μg/ml (right)): 18.1%
- inhibition at 0.1 µg/mL (human HBV; Hepatitis B virus, HepG2 2.2.15, read-out: % Inh. of human HBV DNA replication in HepG2 2.2.15 cells @ 0.1 μg/ml (left)): 69.1%

Compound: [(+)(6R)]-5-bromo-6-ethoxy-5,6dihydro-3′-fluoro-2′,3′-dideoxyuridine [RB-5]
- % Inhibition of DHBV DNA in duck hepatocytes EC50 μM ([1]; Table 3a): not active
- EC50 (human HBV): 5 µM

Compound: (5R,6R) 5-fluoro-O^6-5′-cyclo-5,6-dihydro-2′-deoxythymidine [Compound R-25]
- HSV-1 (KOS) HSV-TK+ EC50 (HSV-1 (KOS) HSV-TK+): >25 µg/mL
- HCMV (AD-169) EC50 (HCMV (AD169); Table 4): >100 µg/mL
- EBV EC50 (Epstein-Barr Virus (EBV)): 0.6 to 3.0 µg/mL
- HSV-2 (MS) EC50 (HSV-2 (MS); Table 4): >100 µg/mL
- HSV-1 (KOSSB) HSV-TK− EC50 (HSV-1 (KOSSB) HSV-TK−): >50 µg/mL
- VZV (Ellen) EC50 (VZV (Ellen); Table 4): >100 µg/mL
- HSV-1 (E-377) EC50, μg/ml (HSV-1 (E-377); Table 4): >100 μg/ml

Compound: (5S,6S)5-Bromo-O^6-5′-cyclo-5,6-dihydro-5-ethyl-2′-deoxyuridine [Compound R-9]
- HSV-1 (KOS) HSV-TK+ EC50 (HSV-1 (KOS) HSV-TK+): 1 to 5 µg/mL
- HSV-2 (MS) EC50 (HSV-2 (MS); Table 4): 10 µg/mL
- HSV-1 (KOSSB) HSV-TK− EC50 (HSV-1 (KOSSB) HSV-TK−): 10 to 25 µg/mL
- HSV-1 (E-377) EC50, μg/ml (HSV-1 (E-377); Table 4): 4.0 μg/ml

Compound: Nc1nc(O)c2ncn(COC(CO)CO)c2n1 [Gancyclovir, ganciclovir, reference compound]
- EC50 (HCMV (AD169); Table 2): 0.06 µg/mL (≈ 0.235 µM)
- EC50 (HCMV (AD169); Table 4, read-out: HCMV (AD-169) EC50): 0.1 µg/mL (≈ 0.392 µM)
- EC50 (VZV (Ellen); Table 4): 0.1 µg/mL

Compound: (5R,6S) 5-fluoro-O^6-5′-cyclo-5,6-dihydro-2′-deoxythymidine [Compound R-24]
- HSV-1 (KOS) HSV-TK+ EC50 (HSV-1 (KOS) HSV-TK+): >25 µg/mL
- HCMV (AD-169) EC50 (HCMV (AD169); Table 4): >100 µg/mL
- EBV EC50 (Epstein-Barr Virus (EBV)): 0.6 to 2.8 µg/mL
- EBV EC90 (Epstein-Barr Virus (EBV); Table 4, in parentheses): (EC90 = 3.8) μg/ml
- HSV-2 (MS) EC50 (HSV-2 (MS); Table 4): >100 µg/mL
- HSV-1 (KOSSB) HSV-TK− EC50 (HSV-1 (KOSSB) HSV-TK−): >50 µg/mL
- VZV (Ellen) EC50 (VZV (Ellen); Table 4): >100 µg/mL
- HSV-1 (E-377) EC50, μg/ml (HSV-1 (E-377); Table 4): >100 μg/ml

Compound: C=Cc1cn(CCC(CO)CO)c(=O)[nH]c1=O [Compound 20, 1-[4-Hydroxy-3-(hydroxymethyl)-1-butyl]-5-vinyluracil]
- inhibition at 10 µg/mL [1, 3]: 80%
- EC50 [1, 4]: 1 to 3 µg/mL
- CC50 ([2]; Table 2): > 100 µg/mL

Compound: Nc1nc2c(ncn2COCCO)c(=O)[nH]1 [Acyclovir, acyclovir, reference compound]
- EC50 (HSV-1 (KOS) HSV-TK+; Human alphaherpesvirus 1): < 1 µg/mL
- EBV EC90 (Epstein-Barr Virus (EBV); Table 4, in parentheses): > 50 µg/mL
- EBV EC90 (Epstein-Barr Virus (EBV); Table 5, in parentheses): (EC90 = >50) μg/ml
- EC50 (Epstein-Barr Virus (EBV); human gammaherpesvirus 4, Table 3a, read-out: EBV EC50): 1 µg/mL (≈ 4.44 µM)
- EC50 (Epstein-Barr Virus (EBV); human gammaherpesvirus 4, Table 4, read-out: EBV EC50): 1.4 µg/mL (≈ 6.22 µM)
- EC50 (Epstein-Barr Virus (EBV); human gammaherpesvirus 4, Table 5, read-out: EBV EC50): 1 µg/mL (≈ 4.44 µM)
- EC50 (Epstein-Barr Virus (EBV); human gammaherpesvirus 4, running text, read-out: anti EBV activity EC50): 1 µg/mL (≈ 4.44 µM)
- EC90 (Epstein-Barr Virus (EBV); Table 3a, in parentheses, read-out: EBV EC90): > 50 µg/mL
- EC90 (Epstein-Barr Virus (EBV); read-out: anti EBV activity EC90): > 50 µg/mL
- EC50 (HSV-2 (MS); Table 3b): 6.16 µM
- EC50 (HSV-2 (MS); Table 4): 0.6 µg/mL
- EC50 (HSV-1 (KOSSB) HSV-TK−; Human alphaherpesvirus 1, read-out: HSV-1 (KOSSB) HSV-TK− EC50, μg/ml): > 100 µg/mL
- EC50 (VZV (Ellen); Table 2): 0.6 µg/mL
- EC50 (VZV (Ellen); Table 3a): 0.03 µg/mL
- EC50 (VZV (Ellen); Table 3b): 3.96 µM
- EC50 (VZV (Ellen); Table 4): 0.08 µg/mL
- CC50 ([2]; Table 3b): > 400 µM
- EC50 (HSV-1 (E-377); Table 3b): 3080 nM
- EC50 (HSV-1 (E-377); Table 4): 0.2 µg/mL

From patent US7589077B2, “Antiviral nucleosides” (priority 2001, dated 2009)
